Measured values published in BindingDB's records for doi:10.1016/j.bmc.2010.03.036 (Chugai Pharmaceutical, 2010).

What was measured:
[1] = Antagonist activity at AR in bicalutamide-resistant human LNCAP cells assessed as effect on cell proliferation after 6 days
[2] = Antagonist activity at AR in human LNCAP cells assessed as effect on cell proliferation after 6 days

SMILES | IC50 [1] [nM] | IC50 [2] [nM]
CC1(C)C(=O)N(c2ccc(C#N)c(C(F)(F)F)c2)C(=S)N1CCS(N)(=O)=O [2-[3-(4-Cyano-3-trifluoromethylphenyl)-5,5-dimethyl-4-oxo-2-thioxoimidazolidin-1-yl]ethanesulfonamide] | 79 | –
CC1(C)C(=O)N(c2ccc(C#N)c(Cl)c2)C(=S)N1CCCS(N)(=O)=O [3-[3-(3-Chloro-4-cyanophenyl)-5,5-dimethyl-4-oxo-2-thioxoimidazolidin-1-yl]propane-1-sulfonamide] | 12 | 410
Cc1c(N2C(=O)C(C)(C)N(CCCS(N)(=O)=O)C2=S)ccc(C#N)c1C(F)(F)F [3-[3-(4-Cyano-2-methyl-3-trifluoromethylphenyl)-5,5-dimethyl-4-oxo-2-thioxoimidazolidin-1-yl]propane-1-sulfonamide] | – | 1100
Cc1cc(N2C(=O)C(C)(C)N(CCCS(N)(=O)=O)C2=S)ccc1C#N [3-[3-(4-Cyano-3-methylphenyl)-5,5-dimethyl-4-oxo-2-thioxoimidazolidin-1-yl]propane-1-sulfonamide] | 51 | 300
CC1(C)C(=O)N(c2ccc(C#N)c(C(F)(F)F)c2)C(=S)N1CCCS(N)(=O)=O [3-[3-(4-Cyano-3-trifluoromethylphenyl)-5,5-dimethyl-4-oxo-2-thioxoimidazolidin-1-yl]propane-1-sulfonamide] | 18 | 160
CN(C)S(=O)(=O)CCCN1C(=S)N(c2ccc(C#N)c(C(F)(F)F)c2)C(=O)C1(C)C [3-[3-(4-Cyano-3-trifluoromethylphenyl)-5,5-dimethyl-4-oxo-2-thioxoimidazolidin-1-yl]propane-1-sulfonic aciddimethylamide] | – | 3700
CNS(=O)(=O)CCCN1C(=S)N(c2ccc(C#N)c(C(F)(F)F)c2)C(=O)C1(C)C [3-[3-(4-Cyano-3-trifluoromethylphenyl)-5,5-dimethyl-4-oxo-2-thioxoimidazolidin-1-yl]propane-1-sulfonic acidmethylamide] | 30 | 190
CC1(C)C(=O)N(c2ccc(C#N)c(C(F)(F)F)c2)C(=S)N1CCCNS(N)(=O)=O [3-[3-(4-Cyano-3-trifluoromethylphenyl)-5,5-dimethyl-4-oxo-2-thioxoimidazolidin-1-yl]propylsulfamide] | 89 | 780
CC1(C)C(=O)N(c2ccc(C#N)c(C(F)(F)F)c2)C(=S)N1CCCNC(N)=O [3-[3-(4-Cyano-3-trifluoromethylphenyl)-5,5-dimethyl-4-oxo-2-thioxoimidazolidin-1-yl]propylurea] | 200 | 1600
CC1(C)C(=O)N(c2ccc(C#N)c(C(F)(F)F)c2)C(=S)N1CCCCS(N)(=O)=O [4-[3-(4-Cyano-3-trifluoromethylphenyl)-5,5-dimethyl-4-oxo-2-thioxoimidazolidin-1-yl]butane-1-sulfonamide] | 110 | 1400
CC1(C)C(=O)N(c2ccc(C#N)c(C(F)(F)F)c2)C(=S)N1CCCC(N)=O [4-[3-(4-Cyano-3-trifluoromethylphenyl)-5,5-dimethyl-4-oxo-2-thioxoimidazolidin-1-yl]butyramide] | 55 | 400
CC1(C)C(=O)N(c2ccc(C#N)c(C(F)(F)F)c2)C(=S)N1CCCC(=O)O [4-[3-(4-cyano-3-trifluoromethylphenyl)-5,5-dimethyl-4-oxo-2-thioxoimidazolidin-1-yl]butyric acid] | 400 | 2000
